Reference: patent publication US8445474B2 (Knopp Neurosciences, Inc., priority 2006, dated 2013)
Where two headings read alike, the source gives them in different places.

Legend:
[1] = test system: male beagle dogs
Protocol: (§1) Doses were administered orally by gavage and clinical observations were taken continuously following dosing: hourly for the first four hours, and then twice daily cage-side observations for the duration of the inter-dose or post-dose interval. Observations were made of clinical signs, mortality, injury and availability of food and water. Animals were fasted for 24 hr prior to dosing. Dogs in each group were exposed to only one drug, or the combination; each dose was administered only once, with a subsequent dose administered after a recovery period of 4 days.

[2] = test system: monkeys; settings: single oral dose; cited from earlier work
[3] = test system: rodents; settings: single oral dose, and above; cited from earlier work
[4] = in vivo; settings: male, beagle, dog
Protocol: as §1

[5] = Dissolution of exploratory combination capsules in simulated gastric fluid (SGF), chiral HPLC; format: physicochemical; settings: for Average Concentrations of the enantiomer, Experiments SGF (1) and SGF (2) / Concentration of the enantiomer in SGF (1) Vessel / Concentration of the enantiomer in SGF (2) Vessel: combination capsule in 10 mL SGF pH 1.2
Protocol: Drug Formulation. […] Normal phase, chiral HPLC was used for monitoring the release of R(+) pramipexole and S(−) pramipexole in simulated gastric fluid (SGF).
Dissolution Study. SGF (pH=1.2) was prepared by diluting 1 g of sodium chloride and 7 mL of concentrated HCl to 1 L with HPLC grade water. The dissolution experiment was run as follows: an exploratory combination capsule was placed in 10 mL of SGF and shaken under ambient conditions at 600 RPM for 60 minutes. Aliquots of 100 μL were pulled from the same sample vessel at various time points. The 100 μL samples of SGF solution were evaporated using a nitrogen bleed and heat and the residues were dissolved in the HPLC diluent and filtered through 0.45 μm syringe filters. […] This experiment was performed in duplicate (experiment numbers SGF (1) (see Table 4) and SGF (2) (see Table 5)) and the results are also provided in average values (see Table 6). The tables and figures below summarize the results from these experiments.

[6] = test system: human subjects; settings: cited from earlier work
[7] = test system: rodents
[8] = molecular target: human cloned dopamine receptor D5 (Homo sapiens, UniProt P21918); settings: historic data; cited from earlier work
Chain of human cloned dopamine receptor D5 (P21918 whole entry): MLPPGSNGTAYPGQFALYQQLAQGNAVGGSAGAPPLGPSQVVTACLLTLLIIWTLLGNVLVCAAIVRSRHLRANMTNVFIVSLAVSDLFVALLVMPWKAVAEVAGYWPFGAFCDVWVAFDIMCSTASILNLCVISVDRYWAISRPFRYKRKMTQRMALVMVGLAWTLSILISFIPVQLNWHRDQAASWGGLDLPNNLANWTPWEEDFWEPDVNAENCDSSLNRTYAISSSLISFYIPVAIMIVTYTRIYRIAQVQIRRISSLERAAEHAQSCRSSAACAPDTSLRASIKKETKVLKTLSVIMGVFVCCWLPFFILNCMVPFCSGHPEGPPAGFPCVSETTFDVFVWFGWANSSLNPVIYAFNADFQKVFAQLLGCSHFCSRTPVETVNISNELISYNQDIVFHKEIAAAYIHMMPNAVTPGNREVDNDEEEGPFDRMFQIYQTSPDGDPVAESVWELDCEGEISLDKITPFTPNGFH

[9] = test system: dogs; settings: single oral dose, and above; cited from earlier work
[10] = male, beagle, dog, in vivo, 1 study day
[11] = male, beagle, dog, in vivo, 8 study day
[12] = non-naïve male beagle dogs, single oral dose
[13] = 4320 minutes, stored benchtop in clear vial

SMILES: CCCN[C@H]1CCc2nc(N)sc2C1 [S(−) pramipexole]
- human dose equivalent to dog MTD ([1]; 70 kg individual): 0.30 mg
- human dose equivalent to dog NOAEL ([1]; 70 kg individual): 0.05 mg
- human dose equivalent to dog NOAEL ([1]; human equivalent): 0.7 µg/kg
- Feces mucoid (animals affected/total) ([1]; male, beagle, dog, in vivo): 0/4
- Feces soft (animals affected/total) ([1]; male, beagle, dog, in vivo): 0/4
- Feces watery (animals affected/total) ([1]; male, beagle, dog, in vivo): 0/4
- Lacrimation (animals affected/total) ([1]; male, beagle, dog, in vivo): 0/4
- Pupils dilated (animals affected/total) ([1]; male, beagle, dog, in vivo): 0/4
- Skin warm to touch (animals affected/total) ([1]; male, beagle, dog, in vivo): 0/4
- Activity decreased (animals affected/total) [1, 10]: 3/4
- Convulsions-clonic (animals affected/total) [1, 10]: 0/4
- Emesis (animals affected/total) [1, 10]: 3/4
- Salivation (animals affected/total) [1, 10]: 0/4
- Tremors (animals affected/total) [1, 10]: 1/4
- Activity decreased (animals affected/total) [1, 11]: 0/4
- Emesis (animals affected/total) [1, 11]: 0/4
- Tremors (animals affected/total) [1, 11]: 0/4
- MTD [1, 12]: 7.5 µg/kg
- NOAEL [1, 12]: 1.25 µg/kg
- dose at which major excitation was displayed [2]: 3500 µg/kg
- doses at which deaths occurred [3]: 70000 to 105000 µg/kg
- MTD at 4 days [4]: 4.2 µg/kg
- Average Concentrations of the enantiomer, Experiments SGF (1) and SGF (2) ([5]; 3 minutes): 0 mg/mL
- Concentration of the enantiomer in SGF (1) Vessel ([5]; 3 minutes): 0 ng/mL
- Concentration of the enantiomer in SGF (2) Vessel ([5]; 3 minutes): 0 ng/mL
- Average Concentrations of the enantiomer, Experiments SGF (1) and SGF (2) ([5]; 4 minutes): 0 mg/mL
- Concentration of the enantiomer in SGF (1) Vessel ([5]; 4 minutes): 0 ng/mL
- Concentration of the enantiomer in SGF (2) Vessel ([5]; 4 minutes): 0 ng/mL
- Average Concentrations of the enantiomer, Experiments SGF (1) and SGF (2) ([5]; 6 minutes): 0 mg/mL
- Concentration of the enantiomer in SGF (1) Vessel ([5]; 6 minutes): 0 ng/mL
- Concentration of the enantiomer in SGF (2) Vessel ([5]; 6 minutes): 0 ng/mL
- Average Concentrations of the enantiomer, Experiments SGF (1) and SGF (2) ([5]; 8 minutes): 0 mg/mL
- Concentration of the enantiomer in SGF (1) Vessel ([5]; 8 minutes): 0 ng/mL
- Concentration of the enantiomer in SGF (2) Vessel ([5]; 8 minutes): 0 ng/mL
- Average Concentrations of the enantiomer, Experiments SGF (1) and SGF (2) ([5]; 10 minutes): 0.003489 mg/mL
- Concentration of the enantiomer in SGF (1) Vessel ([5]; 10 minutes): 6978 ng/mL
- Concentration of the enantiomer in SGF (2) Vessel ([5]; 10 minutes): 0 ng/mL
- Average Concentrations of the enantiomer, Experiments SGF (1) and SGF (2) ([5]; 11 minutes): 0.00738 mg/mL
- Concentration of the enantiomer in SGF (1) Vessel ([5]; 11 minutes): 8956 ng/mL
- Concentration of the enantiomer in SGF (2) Vessel ([5]; 11 minutes): 5803 ng/mL
- Average Concentrations of the enantiomer, Experiments SGF (1) and SGF (2) ([5]; 12 minutes): 0.009645 mg/mL
- Concentration of the enantiomer in SGF (1) Vessel ([5]; 12 minutes): 10830 ng/mL
- Concentration of the enantiomer in SGF (2) Vessel ([5]; 12 minutes): 8460 ng/mL
- Average Concentrations of the enantiomer, Experiments SGF (1) and SGF (2) ([5]; 14 minutes): 0.015 mg/mL
- Concentration of the enantiomer in SGF (1) Vessel ([5]; 14 minutes): 15340 ng/mL
- Concentration of the enantiomer in SGF (2) Vessel ([5]; 14 minutes): 14660 ng/mL
- Average Concentrations of the enantiomer, Experiments SGF (1) and SGF (2) ([5]; 15 minutes): 0.01769 mg/mL
- Concentration of the enantiomer in SGF (1) Vessel ([5]; 15 minutes): 17690 ng/mL
- Concentration of the enantiomer in SGF (2) Vessel ([5]; 15 minutes): 17700 ng/mL
- Average Concentrations of the enantiomer, Experiments SGF (1) and SGF (2) ([5]; 17 minutes): 0.02176 mg/mL
- Concentration of the enantiomer in SGF (1) Vessel ([5]; 17 minutes): 21570 ng/mL
- Concentration of the enantiomer in SGF (2) Vessel ([5]; 17 minutes): 21960 ng/mL
- Average Concentrations of the enantiomer, Experiments SGF (1) and SGF (2) ([5]; 18 minutes): 0.02294 mg/mL
- Concentration of the enantiomer in SGF (1) Vessel ([5]; 18 minutes): 22230 ng/mL
- Concentration of the enantiomer in SGF (2) Vessel ([5]; 18 minutes): 23650 ng/mL
- Average Concentrations of the enantiomer, Experiments SGF (1) and SGF (2) ([5]; 20 minutes): 0.028 mg/mL
- Concentration of the enantiomer in SGF (1) Vessel ([5]; 20 minutes): 27330 ng/mL
- Concentration of the enantiomer in SGF (2) Vessel ([5]; 20 minutes): 28670 ng/mL
- Average Concentrations of the enantiomer, Experiments SGF (1) and SGF (2) ([5]; 25 minutes): 0.03742 mg/mL
- Concentration of the enantiomer in SGF (1) Vessel ([5]; 25 minutes): 37640 ng/mL
- Concentration of the enantiomer in SGF (2) Vessel ([5]; 25 minutes): 37210 ng/mL
- Average Concentrations of the enantiomer, Experiments SGF (1) and SGF (2) ([5]; 30 minutes): 0.04566 mg/mL
- Concentration of the enantiomer in SGF (1) Vessel ([5]; 30 minutes): 48900 ng/mL
- Concentration of the enantiomer in SGF (2) Vessel ([5]; 30 minutes): 42420 ng/mL
- Average Concentrations of the enantiomer, Experiments SGF (1) and SGF (2) ([5]; 60 minutes): 0.05654 mg/mL
- Concentration of the enantiomer in SGF (1) Vessel ([5]; 60 minutes): 51970 ng/mL
- Concentration of the enantiomer in SGF (2) Vessel ([5]; 60 minutes): 61100 ng/mL
- Average Concentrations of the enantiomer, Experiments SGF (1) and SGF (2) [5, 13]: 0.09309 mg/mL
- Concentration of the enantiomer in SGF (1) Vessel [5, 13]: 93670 ng/mL
- Concentration of the enantiomer in SGF (2) Vessel [5, 13]: 92500 ng/mL
- course of release from the capsule ([5]; SGF pH 1.2, 60 minutes): did not go to completion after one hour
- dose shown to cause somnolence [6]: 1.5 mg
- initial, single doses not tolerated [6]: greater than 0.20 milligrams
- human dose equivalent to rodent lethal dose ([7]; human equivalent): 7000 to 12000 µg/kg
- human dose equivalent to rodent lethal dose ([7]; rodents, in vivo): 500 to 850 mg
- Ki [8]: > 50 µM
- dose at which vomiting occurred [9]: ≥ 0.7 µg/kg
